Data taken from US20260240203A1, “COMPOSITIONS CONTAINING GAMMA-AMINOBUTYRIC ACID AND METHODS FOR IMPROVING COGNITIVE FUNCTIONS, MOOD, AND ALERTNESS” (THE COCA-COLA COMPANY, priority 2023, published 2026).

Experiments:
healthy adults [1] = conditions: vs placebo; compositive level; single beverage dose
healthy adults [2] = conditions: p-value vs placebo; compositive level; single beverage dose; b330

With Cn1c(=O)c2c(ncn2C)n(C)c1=O [Caffeine, caffeine] the accuracy of performance (healthy adults [1]) was “numerically trends to improve the accuracy of performance, although no significance observed” and the “improve the speed of performance significantly comparing to placebo (p), as printed in the attention paragraph” value (healthy adults [2]) was 0.002.
